34 molecules from PMC4317638 (Emerging Microbes & Infections, 2014) can be followed below.

Broadly, the pIC50 is −log10 of the IC50, conventionally taken in molar units. The IC90 is the point of the concentration-response curve where the effect stands at 90%.

pIC50: −log10 of the molar value. Where a name gives a salt, the structure may show the parent alone. Read-outs that look alike come from different tables or passages of the source.

One series can be described thus: in vitro. The conditions noted are these: human, Cytotoxicity IC50.
Series [1] concerns Ebola VLP entry into HeLa cells. The series can be described thus: microbe, parasite or virus in culture. It is filed as cell-based, Ebola virus. The note with it: for pIC50 / IC90 / Emax: Zaire ebolavirus, HeLa; for IC90: read-out: Block Ebola VLP entry IC90; for Emax: read-out: Block Ebola VLP entry Max. Inh.
[2] abbreviates: read-out: Block Ebola VLP entry IC50.
Setting [3] is: read-out: IC50 of blocking Ebola VLP entry.

For `CCCSc1ccc2nc(NC(=O)OC)[nH]c2c1` [Albendazole], in the series “in vitro”, the pIC50 was < 3.30. In series [1], the “Selectivity Index” value is >102 fold, the IC90 was determined as 20.7 µM and the Emax came to 76%. In series [1] (setting [2]), the pIC50 was 5.31. In addition, the pIC50 in series [1] (setting [3]) was 5.32.
For the molecule `CCN(CCCc1ccccc1)CCCc1ccccc1` [Alverine Citrate], the pIC50 in “in vitro” was < 3.30. Besides, in series [1], the “Selectivity Index” value was >58 fold, the IC90 came to 21.8 µM and the Emax worked out at 90%. The pIC50 in series [1] (setting [2]) is 5.06.
As to `CCN(CC)Cc1cc(Nc2ccnc3cc(Cl)ccc23)ccc1O` [Amodiaquine], the pIC50 in the series “in vitro” is < 3.30. Besides, in series [1], the “Selectivity Index” value was >113 fold, the IC90 was found to be 27.3 µM and the Emax is 106%. In series [1] (setting [2]), the pIC50 is 5.35.
The corresponding values for `CCN(CC)CCCN(c1ccccc1)C1Cc2ccccc2C1` [Aprindine] are < 3.30, >65 fold, 26.6 µM, 93% and 5.11.
For `O=C(CCN1CCN2CCCC2C1)N1c2ccccc2Sc2ccc(Cl)cc21` (centres unmarked) [Azaclorzine] the same measures were < 3.30, >53 fold, 37.1 µM, 88% and 5.03.
For `CC[C@H]1OC(=O)[C@H](C)[C@@H](O[C@H]2C[C@@](C)(OC)[C@@H](O)[C@H](C)O2)[C@H](C)[C@@H](O[C@@H]2O[C@H](C)C[C@H](N(C)C)[C@H]2O)[C@](C)(O)C[C@@H](C)CN(C)[C@H](C)[C@@H](O)[C@]1(C)O` [Azithromycin] the same measures were < 3.30, >179 fold, 15.8 µM, 100% and 5.55.
Consider `Cc1c(-c2ccc(O)cc2)n(Cc2ccc(OCCN3CCCCCC3)cc2)c2ccc(O)cc12` [Bazedoxifene], for which the pIC50 in “in vitro” is 4.36.
Consider `CN1[C@@H]2CC[C@H]1C[C@@H](OC(c1ccccc1)c1ccccc1)C2` [Benztropine], for which, in “in vitro”, the pIC50 is 3.60. Moreover, in series [1], the IC90 is 8.25 µM and the Emax worked out at 100%.
In the case of `Cc1ccc(C(=O)Oc2ccc(C(O)CNC(C)(C)C)cc2OC(=O)c2ccc(C)cc2)cc1` (centres unmarked) [Bitolterol], in “in vitro”, the pIC50 was 3.60. In series [1], the “Selectivity Index” value is 41 fold, the IC90 was determined as 22.6 µM and the Emax came out at 85%. For the same molecule, in series [1] (setting [2]), the pIC50 was 5.21.
For the molecule `COc1cc(Nc2c(C#N)cnc3cc(OCCCN4CCN(C)CC4)c(OC)cc23)c(Cl)cc1Cl` [Bosutinib], the pIC50 in “in vitro” was 4.36. Moreover, in series [1], the “Selectivity Index” value came to 11 fold, the IC90 worked out at 21.3 µM and the Emax was found to be 101%. In addition, the pIC50 in series [1] (setting [2]) is 5.41.
The corresponding values for `CC(C)C[C@H](NC(=O)[C@H](CCc1ccccc1)NC(=O)CN1CCOCC1)C(=O)N[C@@H](Cc1ccccc1)C(=O)N[C@@H](CC(C)C)C(=O)[C@@]1(C)CO1` [Carfilzomib] are < 3.30, >1156 fold, 1.88 µM, 57% and 6.36.
For `COc1ccc2cc1Oc1ccc(cc1)C[C@H]1c3c(cc4c(c3Oc3cc5c(cc3OC)CCN(C)[C@@H]5C2)OCO4)CCN1C` [Cepharanthine] the same measures were 4.05, 58 fold, 4.4 µM, 112% and 5.82.
In the case of `CCN(CC)CCCC(C)Nc1ccnc2cc(Cl)ccc12` (centres unmarked) [Chloroquine], the pIC50 in the series “in vitro” was < 3.30. Besides, in series [1], the “Selectivity Index” value is recorded as >32 fold, the IC90 was 133 µM and the Emax amounted to 98%. Moreover, in series [1] (setting [2]), the pIC50 is 4.82.
Turning to `CC[C@H]1OC(=O)[C@H](C)[C@@H](O[C@H]2C[C@@](C)(OC)[C@@H](O)[C@H](C)O2)[C@H](C)[C@@H](O[C@@H]2O[C@H](C)C[C@H](N(C)C)[C@H]2O)[C@](C)(OC)C[C@@H](C)C(=O)[C@H](C)[C@@H](O)[C@]1(C)O` [Clarithromycin], in the series “in vitro”, the pIC50 is < 3.30. In series [1], the “Selectivity Index” value was >110 fold, the IC90 came out at 15.1 µM and the Emax is 100%. In addition, the pIC50 in series [1] (setting [2]) is 5.34.
`CN(C)CCCN1c2ccccc2CCc2ccc(Cl)cc21` [Clomipramine]: in the series “in vitro”, the pIC50 is 4.19. For the same molecule, in series [1], the IC90 was 11.7 µM and the Emax stood at 93%.
With `COc1cc2c(c(OC)c1OC)-c1ccc(OC)c(=O)cc1[C@@H](NC(C)=O)CC2` [Colchicine], the pIC50 in the series “in vitro” is < 3.30. Besides, in series [1], the IC90 is 0.354 µM and the Emax worked out at 73%.
Take `CC1CCCCN1CCCOC(=O)c1ccc(OC2CCCCC2)cc1` (centres unmarked) [Cyclomethycaine]: the pIC50 in the series “in vitro” was < 3.30. Moreover, in series [1], the “Selectivity Index” value is on record as >65 fold, the IC90 worked out at 19.6 µM and the Emax turned out to be 86%. For the same molecule, in series [1] (setting [2]), the pIC50 was 5.11.
In the case of `COc1cccc2c1C(=O)c1c(O)c3c(c(O)c1C2=O)C[C@@](O)(C(C)=O)C[C@@H]3O[C@H]1C[C@H](N)[C@H](O)[C@H](C)O1` [Daunomycin], the pIC50 in the series “in vitro” is < 3.30. Also, in series [1], the “Selectivity Index” value is recorded as >190 fold, the IC90 stood at 5.4 µM and the Emax worked out at 98%. In addition, the pIC50 in series [1] (setting [2]) was 5.58.
In turn, `C[C@H]1O[C@@H](O[C@H]2CC[C@@]3(C)[C@H](CC[C@@H]4[C@@H]3C[C@@H](O)[C@]3(C)[C@@H](C5=CC(=O)OC5)CC[C@]43O)C2)C[C@H](O)[C@@H]1O[C@H]1C[C@H](O)[C@H](O[C@H]2C[C@H](O)[C@H](O[C@@H]3O[C@H](CO)[C@@H](O)[C@H](O)[C@H]3O)[C@@H](C)O2)[C@@H](C)O1` [Deslanoside] gave a pIC50 in “in vitro” of 3.60. For the same molecule, in series [1], the “Selectivity Index” value amounted to 515 fold, the IC90 stood at 11.7 µM and the Emax amounted to 66%. For the same molecule, in series [1] (setting [2]), the pIC50 is 6.31.
The corresponding values for `CCCCc1oc2ccc(NS(C)(=O)=O)cc2c1C(=O)c1ccc(OCCCN(CCCC)CCCC)cc1` [Dronedarone] are 4.32, 21 fold, 3.51 µM, 81% and 5.66.
On to `COc1cc2ncnc(Nc3ccc(F)c(Cl)c3)c2cc1OCCCN1CCOCC1` [Gefitinib], for which the IC90 in series [1] turned out to be 17.9 µM.
`CN(C)CCCN1c2ccccc2CCc2ccccc21` [Imipramine]: the pIC50 in “in vitro” was < 3.30.
`CO[C@@H]1[C@@H](OC)[C@H](C)[C@@](O)(CC(=O)O)O[C@H]1[C@H](C)[C@H]1O[C@@]2(CC[C@@](C)([C@H]3CC[C@@](C)([C@@H]4O[C@@H]([C@H]5O[C@](C)(O)[C@H](C)C[C@@H]5C)C[C@@H]4O[C@@H]4C[C@H](OC)[C@@H](OC)[C@H](C)O4)O3)O2)C[C@H](O)[C@H]1C` [Maduramicin] had a pIC50 in “in vitro” of 4.61. In series [1], the “Selectivity Index” value came out at 40 fold, the IC90 was found to be 3.94 µM and the Emax came to 104%. Also, the pIC50 in series [1] (setting [2]) is 6.21.
The molecule `CNCCCC12CCC(c3ccccc31)c1ccccc12` [Maprotiline] had a pIC50 in the series “in vitro” of 3.84. Besides, in series [1], the IC90 is 12.1 µM and the Emax came to 100%.
Take `COC(=O)Nc1nc2ccc(C(=O)c3ccccc3)cc2[nH]1` [Mebendazole]: the pIC50 in “in vitro” is < 3.30. For the same molecule, in series [1], the “Selectivity Index” value is given as >145 fold, the IC90 is 14 µM and the Emax came out at 88%. Also, in series [1] (setting [2]), the negative logarithm of the IC50 (pIC50) is 5.46. In series [1] (setting [3]), the pIC50 is 5.47.
Molecule `OC(c1cc(C(F)(F)F)nc2c(C(F)(F)F)cccc12)C1CCCCN1` (centres unmarked) [Mefloquine] had a pIC50 in the series “in vitro” of 4.36. Moreover, in series [1], the “Selectivity Index” value is 16 fold, the IC90 is 13 µM and the Emax is 94%. Moreover, the pIC50 in series [1] (setting [2]) was 5.56.
As for `COCC(=O)O[C@]1(CCN(C)CCCc2nc3ccccc3[nH]2)CCc2cc(F)ccc2[C@@H]1C(C)C` [Mibefradil], the pIC50 in the series “in vitro” was 4.36. Also, in series [1], the “Selectivity Index” value is 10 fold, the IC90 came to 7.34 µM and the Emax amounted to 96%. Moreover, the pIC50 in series [1] (setting [2]) is 5.36.
Turning to `O=C(Nc1ccc([N+](=O)[O-])cc1Cl)c1cc(Cl)ccc1O` [Niclosamide], the pIC50 in “in vitro” was < 3.30. For the same molecule, in series [1], the “Selectivity Index” value is reported as >188 fold, the IC90 turned out to be 6.6 µM and the Emax turned out to be 81%. Further, the pIC50 in series [1] (setting [2]) was 5.58.
Regarding `Cc1cn(-c2cc(NC(=O)c3ccc(C)c(Nc4nccc(-c5cccnc5)n4)c3)cc(C(F)(F)F)c2)cn1` [Nilotinib], the pIC50 in the series “in vitro” was 4.30. In addition, in series [1], the “Selectivity Index” value is given as 2 fold, the IC90 amounted to 104 µM and the Emax worked out at 100%. The pIC50 in series [1] (setting [2]) is 4.61. Further, the pIC50 in series [1] (setting [3]) is 4.82.
Consider `COC(=O)Nc1nc2ccc(C(=O)c3cccs3)cc2[nH]1` [Nocodazole], for which the pIC50 in “in vitro” is < 3.30. For the same molecule, in series [1], the “Selectivity Index” value is recorded as >1242 fold, the IC90 came out at 1.04 µM and the Emax worked out at 87%. Also, the pIC50 in series [1] (setting [2]) is 6.40. Also, the pIC50 in series [1] (setting [3]) was 6.40.
Consider `CCCOc1ccc2nc(NC(=O)OC)[nH]c2c1` [Oxibendazole], for which the pIC50 in the series “in vitro” is < 3.30. For the same molecule, in series [1], the “Selectivity Index” value is >291 fold, the IC90 came out at 3.75 µM and the Emax came out at 57%. Moreover, in series [1] (setting [2]), the pIC50 is 5.76.
Turning to `CC(=O)c1ccc2c(c1)N(CCCN1CCC(CCO)CC1)c1ccccc1S2` [Piperacetazine], the pIC50 in “in vitro” was < 3.30. Moreover, in series [1], the “Selectivity Index” value was >52 fold, the IC90 came to 18.1 µM and the Emax came out at 90%. Besides, the negative logarithm of the IC50 (pIC50) in series [1] (setting [2]) was 5.01.
As to `CN[C@H]1CC[C@@H](c2ccc(Cl)c(Cl)c2)c2ccccc21` [Zoloft, sertraline], the IC90 in series [1] was 9.08 µM.
As to Maraviroc, the “Activity in the Ebola VLP assay” value in series [1] is recorded as “not active”.
